Laboratory results as given in US20030215462A1, “Use of UGT inhibitors to increase bioavailability” (priority 2001, published 2003).
Values joined by “and” are separate entries in the source; they are usually repeats but may differ in a detail not shown here. Identical values can stand only once.

Legend:
[1] = tested on: T1, UGT enzymes of human liver microsomes; assay: Inhibition of 7-HFC glucuronidation in human liver microsomes; format: biochemical; conditions: 7-HFC 50 μM, human liver microsomes 100 μg/ml, 15 min
T1 construct: percentage of control metabolism, 7-HFC glucuronidation; percentage of control metabolism, 7-HFC glucuronidation

[2] = tested on: UGT enzymes of human liver microsomes; assay: as above; format: biochemical; conditions: 7-HFC 50 μM, human liver microsomes 100 μg/ml, 15 min
[3] = tested on: UGT enzymes of human liver microsomes; assay: Inhibition of raloxifene glucuronidation (G1, G2) in human liver microsomes; format: biochemical; conditions: inhibitor 500 μM, raloxifene 50 μM, human liver microsomes 250 μg/ml, 15 min
Source text: Compounds were eluted using a binary solvent gradient system. […] Solvent B was methanol. […] Detection was at 280 nm.

[4] = humans; cited from earlier work
[5] = target: T2, UGT1A9 (Homo sapiens, UniProt O60656); assay: in vitro; conditions: pH 7.5, % of control metabolism
T2 sequence (O60656 26-530): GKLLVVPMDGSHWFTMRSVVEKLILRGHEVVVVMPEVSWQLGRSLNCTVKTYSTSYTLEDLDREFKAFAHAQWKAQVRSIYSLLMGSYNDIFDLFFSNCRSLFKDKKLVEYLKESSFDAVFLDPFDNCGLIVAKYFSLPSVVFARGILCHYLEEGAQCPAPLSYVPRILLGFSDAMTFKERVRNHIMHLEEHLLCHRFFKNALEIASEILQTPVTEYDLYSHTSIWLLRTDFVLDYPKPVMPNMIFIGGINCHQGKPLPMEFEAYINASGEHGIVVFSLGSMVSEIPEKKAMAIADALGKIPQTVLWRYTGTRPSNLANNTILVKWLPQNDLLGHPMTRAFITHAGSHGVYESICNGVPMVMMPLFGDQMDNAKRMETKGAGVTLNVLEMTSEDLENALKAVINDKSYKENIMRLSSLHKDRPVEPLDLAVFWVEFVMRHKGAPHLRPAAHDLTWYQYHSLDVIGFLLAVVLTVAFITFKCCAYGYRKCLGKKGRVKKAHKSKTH
Procedure: (§1) Compounds were eluted using a binary solvent gradient system. Solvent A was water brought to pH 8 with NH4OH. Solvent B was methanol. Solvent flow rate was 1 ml/min and the column temperature was maintained at 50° C. Detection was at 280 nm. […] The system was then returned to the initial conditions and equilibrated for 3 min.

[6] = target: T3, UGT1A1 (Homo sapiens, UniProt P22309); assay: in vitro
T3 sequence (P22309 26-533): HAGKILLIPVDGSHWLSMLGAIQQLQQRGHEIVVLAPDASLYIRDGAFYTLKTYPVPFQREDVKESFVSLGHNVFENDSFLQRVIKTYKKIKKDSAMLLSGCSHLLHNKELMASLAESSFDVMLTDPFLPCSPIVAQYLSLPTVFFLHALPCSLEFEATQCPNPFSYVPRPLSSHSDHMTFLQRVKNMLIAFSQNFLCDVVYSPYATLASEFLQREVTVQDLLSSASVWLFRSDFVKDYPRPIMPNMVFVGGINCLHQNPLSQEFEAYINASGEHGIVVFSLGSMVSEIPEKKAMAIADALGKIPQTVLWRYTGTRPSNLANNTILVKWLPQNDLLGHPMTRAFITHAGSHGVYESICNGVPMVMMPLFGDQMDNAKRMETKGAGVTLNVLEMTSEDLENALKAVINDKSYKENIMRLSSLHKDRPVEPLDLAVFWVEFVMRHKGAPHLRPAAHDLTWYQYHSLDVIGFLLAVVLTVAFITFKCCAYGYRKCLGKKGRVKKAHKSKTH
Procedure: as §1

[7] = target: T4, UGT1A10 (Homo sapiens, UniProt Q9HAW8); assay: in vitro; conditions: pH 7.5, % of control metabolism
T4 sequence (Q9HAW8 26-530): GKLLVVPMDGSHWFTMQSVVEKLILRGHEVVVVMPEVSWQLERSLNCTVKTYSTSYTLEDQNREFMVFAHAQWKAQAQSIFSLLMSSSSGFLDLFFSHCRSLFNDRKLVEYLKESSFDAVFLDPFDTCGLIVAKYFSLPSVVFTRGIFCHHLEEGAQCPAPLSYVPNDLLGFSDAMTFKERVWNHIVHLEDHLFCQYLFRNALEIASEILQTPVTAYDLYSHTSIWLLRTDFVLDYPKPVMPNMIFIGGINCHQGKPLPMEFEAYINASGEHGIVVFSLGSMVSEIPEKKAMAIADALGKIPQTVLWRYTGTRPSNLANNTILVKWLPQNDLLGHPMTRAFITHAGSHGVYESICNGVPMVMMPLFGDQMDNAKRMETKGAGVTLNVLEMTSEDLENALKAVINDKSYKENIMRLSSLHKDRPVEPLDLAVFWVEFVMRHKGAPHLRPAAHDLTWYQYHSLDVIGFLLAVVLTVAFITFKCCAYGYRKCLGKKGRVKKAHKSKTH
Procedure: as §1

[8] = target: T5, UGT1A3 (Homo sapiens, UniProt P35503); assay: in vitro
T5 sequence (P35503 29-534): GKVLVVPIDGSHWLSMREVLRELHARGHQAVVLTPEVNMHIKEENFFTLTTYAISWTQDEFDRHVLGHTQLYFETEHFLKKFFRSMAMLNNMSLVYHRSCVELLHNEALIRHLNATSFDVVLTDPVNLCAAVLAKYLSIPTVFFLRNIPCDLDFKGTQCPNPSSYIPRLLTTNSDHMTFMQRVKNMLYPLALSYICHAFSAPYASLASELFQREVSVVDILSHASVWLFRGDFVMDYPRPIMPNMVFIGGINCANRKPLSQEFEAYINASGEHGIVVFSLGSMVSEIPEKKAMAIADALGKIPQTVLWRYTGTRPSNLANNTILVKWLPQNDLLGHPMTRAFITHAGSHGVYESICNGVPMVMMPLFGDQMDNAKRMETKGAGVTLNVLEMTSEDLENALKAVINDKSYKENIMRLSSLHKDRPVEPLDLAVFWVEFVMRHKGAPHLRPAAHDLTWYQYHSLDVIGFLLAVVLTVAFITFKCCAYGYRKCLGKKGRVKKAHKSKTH
Procedure: as §1

[9] = pH 7.5, % of control metabolism, raloxifene G1
[10] = pH 7.5, % of control metabolism, raloxifene G2
[11] = pH 7.5, Inhibition of raloxifene glucuronidation, G1, UGT1A1
[12] = pH 7.5, Inhibition of raloxifene glucuronidation, G2, UGT1A1
[13] = pH 7.5, Inhibition of raloxifene glucuronidation, G1, UGT1A3
[14] = pH 7.5, Inhibition of raloxifene glucuronidation, G2, UGT1A3

For `O=C(O)c1ccccc1O` [Salicylic acid], the “% of control metabolism (SD, n = 3), 7-HFC glucuronidation” value ([1]; inhibitor 100 μM) was 84 (1) %, the “% of control metabolism (SD, n = 3), 7-HFC glucuronidation” value ([1]; inhibitor 200 μM) was 75 (2) % and the “% of control metabolism (SD, n = 3), 7-HFC glucuronidation” value ([1]; inhibitor 500 μM) was 64 (0), % and 63 (1) %. The “% of control metabolism (SD, n = 3), 7-HFC glucuronidation” value ([2]; inhibitor 1000 μM) was 47 (1) %, the “% of control metabolism (SD, n = 3), 7-HFC glucuronidation” value ([2]; inhibitor 2000 μM) was 35 (1) % and the “% of control metabolism (SD, n = 3), raloxifene glucuronide G1” value ([3]; G1) was 92 (2) %. The “% of control metabolism (SD, n = 3), raloxifene glucuronide G2” value ([3]; G2) was 94 (2) %.
In the case of `CCc1c2c(nc3ccc(OC(=O)N4CCC(N5CCCCC5)CC4)cc13)-c1cc3c(c(=O)n1C2)COC(=O)[C@]3(O)CC` [irinotecan], the absolute oral bioavailability [4] is given as “approximately 13%”.
For `COc1cc(C2Oc3cc([C@H]4Oc5cc(O)cc(O)c5C(=O)[C@@H]4O)ccc3OC2CO)ccc1O` (some centres unmarked) [Silibinin], the activity at 15 min, 10 µM ([5]; raloxifene G1) was 93%, the activity at 15 min, 25 µM ([5]; raloxifene G1) was 74% and the activity at 15 min, 50 µM ([5]; raloxifene G1) was 59%. It also gave an activity at 15 min, 10 µM ([5]; raloxifene G2) of 72%, an activity at 15 min, 25 µM ([5]; raloxifene G2) of 47% and an activity at 15 min, 50 µM ([5]; raloxifene G2) of 22%. It also gave an activity at 15 min, 10 µM [6, 9] of 69%, an activity at 15 min, 25 µM [6, 9] of 46% and an activity at 15 min, 50 µM [6, 9] of 18%. For the same compound, the activity at 15 min, 10 µM [6, 10] was 63%, the activity at 15 min, 25 µM [6, 10] was 33% and the activity at 15 min, 50 µM [6, 10] was 7%. The activity at 15 min, 25 µM [6, 11] was 46%, the activity at 15 min, 50 µM [6, 11] was 18% and the activity at 15 min, 25 µM [6, 12] was 33%. For the same compound, the activity at 15 min, 50 µM [6, 12] was 7%, the activity at 15 min, 50 µM ([7]; raloxifene G1) was 56% and the activity at 15 min, 50 µM ([7]; raloxifene G2) was 64%. The activity at 15 min, 10 µM [8, 9] was 81%, the activity at 15 min, 25 µM [8, 9] was 59% and the activity at 15 min, 50 µM [8, 9] was 37%. The activity at 15 min, 10 µM [8, 10] was 56%, the activity at 15 min, 25 µM [8, 10] was 32% and the activity at 15 min, 50 µM [8, 10] was 10%. For the same compound, the activity at 15 min, 10 µM [8, 13] was 81%, the activity at 15 min, 25 µM [8, 13] was 58% and the activity at 15 min, 50 µM [8, 13] was 37%. For the same compound, the activity at 15 min, 10 µM [8, 14] was 56%, the activity at 15 min, 25 µM [8, 14] was 32% and the activity at 15 min, 50 µM [8, 14] was 10%.
